What was measured:
[1] = target: T1, recombinant purified m3MST (Mus musculus, UniProt Q99J99); test: Inhibitory activity toward purified m3MST by gas chromatography; format: biochemical; conditions: 10 μM compound; 50 μM 3MP, 40 μM DTT; room temperature 3 hr; mean±S.D. n = 2; read-out: Inhibitory activity toward recombinant purified m3MST (H2S production by gas chromatography)
T1 construct: made in house; host or cells: E. coli BL21
T1 sequence (Q99J99 1-297): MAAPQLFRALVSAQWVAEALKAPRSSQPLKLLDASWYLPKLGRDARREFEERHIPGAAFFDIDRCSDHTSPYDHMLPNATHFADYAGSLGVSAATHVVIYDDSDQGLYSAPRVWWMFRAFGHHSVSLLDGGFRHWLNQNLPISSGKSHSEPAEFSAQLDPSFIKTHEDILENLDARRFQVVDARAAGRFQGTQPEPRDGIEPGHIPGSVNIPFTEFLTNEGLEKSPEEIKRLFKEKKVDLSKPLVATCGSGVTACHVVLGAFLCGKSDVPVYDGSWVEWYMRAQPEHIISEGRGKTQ
Protocol: 1 μL of 1 mM compound (final 10 μM) was diluted with 89 μL of 3MST solution (final 3.8 μg/mL) or GST solution (2.2 μg/mL) in 30 mM HEPES buffer (pH 7.4) in a 30 mL collection vial (Iwaki). 10 μL of 3MP and DTT solution (final concentration: 50 μM 3MP and 40 μM DTT) was added to 90 μL of the mixture, then the vial was sealed with parafilm and incubated at room temperature for 3 hr. After addition of 200 μL of 1 M sodium citrate buffer (pH 6.0), the mixture was incubated at 37 °C for at least 10 minutes with shaking on rotary shaker to quench the enzymatic activity and facilitate release of H2S gas from the aqueous phase. A 2 mL sample of head-space gas (total, approximately 29.5 mL) was applied to a gas chromatograph (ODSA-P2, Alpha M.O.S. Japan). The concentrations of H2S were determined from a standard curve obtained with 0 to 4 nmol of Na2S, which is a source of H2S. The protocol is illustrated in Supplementary Fig. 9.
Compound Inhibitory activity
All data are presented as the mean±S.D. (n = 2).
Supplementary Figure S9. (a) Schematic illustration of 3MST inhibitor assay by gas chromatography. (b) Inhibitory activity toward recombinant purified m3MST. Conditions: Mixtures of 10 μM test compound, 3.8 μg/mL 3MST or 2.2 μg/mL GST, 50 μM 3MP, 40 μM DTT, and 1% (v/v) DMSO in 30 mM HEPES buffer (pH 7.4) were incubated at room temperature for 3 hr.
(1 picture or pasted object on this page, not shown here)

[2] = Reactivity test toward 3MP and DTT (2nd screening, no enzyme); conditions: 50 μM 3MP, 40 μM DTT, no 3MST, mean±S.D. n = 4
Protocol: Reactivity of the hit compounds toward 3MP and DTT was examined. The final concentration of the compounds was 10 or 50 μM. The assay protocol was as follows: compounds were diluted with HSip-1 solution to 20 or 100 μM solution (10% DMSO) with a Multi-Drop Combi. Next, 3MP and DTT solution (10 μL, final concentrations: 50 μM 3MP and 40 μM DTT) was dispensed into the plates (total volume was 20 μL, 5% DMSO), and the plates were incubated at room temperature for 3 hr. The fluorescence of HSip-1 was measured (λex = 485 nm, λem = 520 nm) with a microplate reader (PHERAstar PLUS). Background control wells (i.e., no addition wells instead of addition of 3MP and DTT, n = 16) were also prepared for all plates.
Supplementary Note 3. […]
The second screening, which is a non-enzymatic assay, was performed to eliminate false-positive hit compounds such as naphthoquinone that react with the substrates, e.g., 3MP and DTT. Even in […]
μM 3MP and 40 μM DTT. The fluorescence increase in the presence or the absence of 3MP and DTT was regarded as 100% or 0% fluorescence signal, respectively, and we evaluated the ability of each compound (10 μM and 50 μM) to inhibit the fluorescence increase caused by the reaction with 3MP and DTT. In this assay, we selected compounds showing ‒25% ≤ inhibitory activity at both 10 and 50 μM ≤ 50% (545 compounds). Then, we further selected compounds showing more than 60% inhibitory activity in the previous confirmation test among 545 compounds (146 hit compounds) (Supplementary Fig. S7). These compounds were considered not to react with 3MP and DTT, at least in this concentration range. […]

| inhibition at 10 µM [1] [%] | No Enzyme: inhibition of HSip-1 fluorescence increase caused by 3MP and DTT ([2]; 10 μM compound) [%] | No Enzyme: inhibition of HSip-1 fluorescence increase caused by 3MP and DTT ([2]; 50 μM compound) [%] | SMILES |
| --- | --- | --- | --- |
| 104 ± 2.7 | 10.1±6.2 | 17.2±4.0 | NC(=O)c1ccsc1NC(=O)CSc1nc2ccccc2c(=O)[nH]1 [compound 1] |
| 90.3 ± 12 | 7.4±5.5 | 6.3±4.5 | Cc1cc(=O)[nH]c(SCC(=O)c2cccc3ccccc23)n1 [compound 3] |
| 90.9 ± 0.9 | 11.4±4.9 | 10.5±4.5 | O=C(O)c1cccc(NS(=O)(=O)c2ccccc2)c1 [compound 5] |
| 93.4 ± 0.8 | 7.4±10.6 | -23.6±17.1 | Cc1sc2nc(SCC(=O)c3ccc(O)cc3O)[nH]c(=O)c2c1C [compound 2] |

Reference: article PMC5228037, “Discovery and Mechanistic Characterization of Selective Inhibitors of H2S-producing Enzyme: 3-Mercaptopyruvate Sulfurtransferase (3MST) Targeting Active-site Cysteine Persulfide” (Scientific Reports, 2017)
